Laboratory results: paper PMC7827406, “Structure–Activity Relationship (SAR) Study of Spautin-1 to Entail the Discovery of Novel NEK4 Inhibitors” (International Journal of Molecular Sciences, 2021)
Like-named read-outs stand apart in the source and are kept apart here.

Experiments:
Assay in all cases: biochemical
Parameters in all cases: Eurofins KinaseProfiler full panel at Km ATP, residual kinase activity (%) relative to DMSO
[1] = biological target: T1, MST3(h) (Homo sapiens, UniProt Q9Y6E0)
T1 construct: gene STK24
T1 sequence (Q9Y6E0 whole entry): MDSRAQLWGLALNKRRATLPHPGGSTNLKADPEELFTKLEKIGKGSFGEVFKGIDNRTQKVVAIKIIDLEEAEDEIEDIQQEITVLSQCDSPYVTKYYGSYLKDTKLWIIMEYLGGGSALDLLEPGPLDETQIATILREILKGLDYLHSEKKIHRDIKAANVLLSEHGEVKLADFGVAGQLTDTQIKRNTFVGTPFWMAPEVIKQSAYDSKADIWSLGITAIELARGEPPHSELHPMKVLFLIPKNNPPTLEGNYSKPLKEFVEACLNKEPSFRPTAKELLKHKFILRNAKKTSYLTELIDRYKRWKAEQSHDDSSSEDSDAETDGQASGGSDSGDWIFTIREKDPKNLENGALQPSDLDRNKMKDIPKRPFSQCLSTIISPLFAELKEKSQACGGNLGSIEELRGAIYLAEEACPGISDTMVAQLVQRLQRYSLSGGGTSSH
How it was run: (§1)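 Compounds screened at 10 µM in radiometric kinase activity assays at Km ATP, reported as remaining kinase activity (%). A KINOMEscan competition-binding screen at 10 µM measured DNA-tagged kinase retained on immobilized active-site ligand by qPCR.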

[2] = biological target: MAP4K5(h) (Homo sapiens, UniProt Q9Y4K4)
How it was run: as §1

[3] = biological target: T2, PRK1(h) (Homo sapiens, UniProt Q16512)
T2 construct: gene PKN1
T2 sequence (Q16512 whole entry): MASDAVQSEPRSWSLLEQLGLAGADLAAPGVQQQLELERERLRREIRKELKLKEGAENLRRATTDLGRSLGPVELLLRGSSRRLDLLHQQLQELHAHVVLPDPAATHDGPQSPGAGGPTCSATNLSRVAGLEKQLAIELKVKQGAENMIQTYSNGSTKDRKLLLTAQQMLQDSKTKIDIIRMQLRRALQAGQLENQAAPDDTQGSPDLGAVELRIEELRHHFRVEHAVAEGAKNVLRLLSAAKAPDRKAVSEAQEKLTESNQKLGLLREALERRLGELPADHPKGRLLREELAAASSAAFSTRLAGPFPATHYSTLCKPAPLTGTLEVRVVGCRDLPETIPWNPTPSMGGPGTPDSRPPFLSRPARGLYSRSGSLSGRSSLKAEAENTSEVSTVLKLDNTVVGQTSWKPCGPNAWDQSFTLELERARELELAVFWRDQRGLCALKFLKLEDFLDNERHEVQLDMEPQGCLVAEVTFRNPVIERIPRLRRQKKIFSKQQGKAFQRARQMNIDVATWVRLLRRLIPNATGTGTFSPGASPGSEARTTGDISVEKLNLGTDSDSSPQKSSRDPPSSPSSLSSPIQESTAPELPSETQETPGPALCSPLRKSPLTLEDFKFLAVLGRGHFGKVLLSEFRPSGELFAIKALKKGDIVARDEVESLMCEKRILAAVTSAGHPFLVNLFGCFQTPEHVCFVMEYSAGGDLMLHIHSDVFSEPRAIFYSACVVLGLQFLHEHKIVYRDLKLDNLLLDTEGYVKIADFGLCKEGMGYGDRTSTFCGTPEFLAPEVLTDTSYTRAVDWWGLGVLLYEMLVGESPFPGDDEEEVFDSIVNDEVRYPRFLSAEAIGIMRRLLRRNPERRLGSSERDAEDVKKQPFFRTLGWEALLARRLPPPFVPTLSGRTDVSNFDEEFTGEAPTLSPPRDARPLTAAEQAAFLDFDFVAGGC
How it was run: as §1

[4] = biological target: T3, A-Raf(h) (Homo sapiens, UniProt P10398)
T3 construct: gene ARAF
T3 sequence (P10398 1-606): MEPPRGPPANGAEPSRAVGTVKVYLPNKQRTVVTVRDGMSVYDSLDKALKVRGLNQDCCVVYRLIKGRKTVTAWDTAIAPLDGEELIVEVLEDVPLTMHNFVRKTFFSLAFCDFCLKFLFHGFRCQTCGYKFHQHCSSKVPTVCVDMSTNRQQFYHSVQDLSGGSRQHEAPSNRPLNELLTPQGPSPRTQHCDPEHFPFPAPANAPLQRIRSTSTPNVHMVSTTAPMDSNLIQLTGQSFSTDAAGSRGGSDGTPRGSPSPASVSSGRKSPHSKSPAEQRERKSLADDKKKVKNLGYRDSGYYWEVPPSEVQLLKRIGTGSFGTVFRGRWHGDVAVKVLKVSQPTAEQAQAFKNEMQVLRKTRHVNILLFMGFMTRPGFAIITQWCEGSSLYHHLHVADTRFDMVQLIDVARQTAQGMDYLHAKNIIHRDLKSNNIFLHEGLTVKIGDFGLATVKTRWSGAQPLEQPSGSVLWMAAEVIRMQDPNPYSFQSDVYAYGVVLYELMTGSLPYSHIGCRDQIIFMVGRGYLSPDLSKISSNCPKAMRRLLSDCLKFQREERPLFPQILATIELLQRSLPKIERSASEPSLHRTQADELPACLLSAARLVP
How it was run: as §1

[5] = biological target: T4, CaMKIγ(h) (Homo sapiens, UniProt Q96NX5)
T4 construct: gene CAMK1G
T4 sequence (Q96NX5 whole entry): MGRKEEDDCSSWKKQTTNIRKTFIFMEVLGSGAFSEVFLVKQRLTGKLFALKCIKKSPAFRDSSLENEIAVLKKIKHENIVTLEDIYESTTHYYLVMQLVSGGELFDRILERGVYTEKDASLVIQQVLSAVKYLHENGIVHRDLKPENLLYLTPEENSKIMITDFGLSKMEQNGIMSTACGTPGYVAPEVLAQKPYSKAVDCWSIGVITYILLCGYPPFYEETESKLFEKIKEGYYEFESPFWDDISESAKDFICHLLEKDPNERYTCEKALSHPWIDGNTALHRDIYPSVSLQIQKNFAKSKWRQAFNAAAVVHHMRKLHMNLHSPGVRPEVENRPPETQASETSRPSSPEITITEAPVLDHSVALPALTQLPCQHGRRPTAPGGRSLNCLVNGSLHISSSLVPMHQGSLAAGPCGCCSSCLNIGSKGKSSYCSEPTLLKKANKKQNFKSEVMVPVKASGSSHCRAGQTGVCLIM
How it was run: as §1

[6] = biological target: T5, IR(h), activated (Homo sapiens, UniProt P06213)
T5 construct: gene INSR
How it was run: as §1

[7] = biological target: LRRK2(h) (Homo sapiens, UniProt Q5S007)
How it was run: as §1

[8] = biological target: T6, Tec(h) activated (Homo sapiens, UniProt P42680)
T6 sequence (P42680 1-631): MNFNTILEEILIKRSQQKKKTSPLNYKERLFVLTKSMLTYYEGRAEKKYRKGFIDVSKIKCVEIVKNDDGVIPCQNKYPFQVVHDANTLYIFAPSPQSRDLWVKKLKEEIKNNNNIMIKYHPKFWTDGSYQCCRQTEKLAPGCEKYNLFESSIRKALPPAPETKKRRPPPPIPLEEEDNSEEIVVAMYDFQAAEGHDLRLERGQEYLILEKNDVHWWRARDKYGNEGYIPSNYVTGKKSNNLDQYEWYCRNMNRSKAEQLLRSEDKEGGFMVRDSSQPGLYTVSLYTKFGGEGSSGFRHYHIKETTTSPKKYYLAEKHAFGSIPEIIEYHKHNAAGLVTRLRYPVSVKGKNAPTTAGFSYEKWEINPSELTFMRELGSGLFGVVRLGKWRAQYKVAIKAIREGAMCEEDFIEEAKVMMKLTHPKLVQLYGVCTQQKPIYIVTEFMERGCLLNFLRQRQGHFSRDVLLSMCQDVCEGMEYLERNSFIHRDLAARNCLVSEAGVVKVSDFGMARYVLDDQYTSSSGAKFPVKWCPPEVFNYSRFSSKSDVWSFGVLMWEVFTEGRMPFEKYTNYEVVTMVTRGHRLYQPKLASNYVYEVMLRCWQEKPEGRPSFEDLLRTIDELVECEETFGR
How it was run: as §1

[9] = biological target: Hck(h) (Homo sapiens, UniProt P08631)
Hck(h), sequence (P08631 whole entry): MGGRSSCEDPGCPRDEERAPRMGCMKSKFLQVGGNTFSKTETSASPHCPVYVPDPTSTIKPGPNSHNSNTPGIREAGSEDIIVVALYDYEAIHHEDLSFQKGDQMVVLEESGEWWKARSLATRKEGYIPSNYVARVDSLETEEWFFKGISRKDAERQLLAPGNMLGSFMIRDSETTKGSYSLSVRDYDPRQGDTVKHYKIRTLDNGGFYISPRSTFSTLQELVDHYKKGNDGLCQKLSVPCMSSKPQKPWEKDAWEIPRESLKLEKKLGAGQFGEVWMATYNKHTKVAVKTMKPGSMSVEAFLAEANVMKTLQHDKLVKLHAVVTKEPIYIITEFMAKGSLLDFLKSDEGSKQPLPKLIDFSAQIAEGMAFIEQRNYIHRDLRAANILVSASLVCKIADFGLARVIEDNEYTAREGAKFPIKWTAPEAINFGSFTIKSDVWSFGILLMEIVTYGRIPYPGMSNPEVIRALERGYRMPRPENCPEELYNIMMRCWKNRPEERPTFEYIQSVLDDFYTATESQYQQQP
How it was run: as §1

[10] = biological target: T7, CHK2(R145W)(h) (Homo sapiens, UniProt O96017, R145W)
T7 construct: gene CHEK2
How it was run: as §1

[11] = biological target: JAK1(h) (Homo sapiens, UniProt P23458)
How it was run: as §1

[12] = biological target: WNK2(h) (Homo sapiens, UniProt Q9Y3S1)
WNK2(h), sequence (Q9Y3S1 whole entry): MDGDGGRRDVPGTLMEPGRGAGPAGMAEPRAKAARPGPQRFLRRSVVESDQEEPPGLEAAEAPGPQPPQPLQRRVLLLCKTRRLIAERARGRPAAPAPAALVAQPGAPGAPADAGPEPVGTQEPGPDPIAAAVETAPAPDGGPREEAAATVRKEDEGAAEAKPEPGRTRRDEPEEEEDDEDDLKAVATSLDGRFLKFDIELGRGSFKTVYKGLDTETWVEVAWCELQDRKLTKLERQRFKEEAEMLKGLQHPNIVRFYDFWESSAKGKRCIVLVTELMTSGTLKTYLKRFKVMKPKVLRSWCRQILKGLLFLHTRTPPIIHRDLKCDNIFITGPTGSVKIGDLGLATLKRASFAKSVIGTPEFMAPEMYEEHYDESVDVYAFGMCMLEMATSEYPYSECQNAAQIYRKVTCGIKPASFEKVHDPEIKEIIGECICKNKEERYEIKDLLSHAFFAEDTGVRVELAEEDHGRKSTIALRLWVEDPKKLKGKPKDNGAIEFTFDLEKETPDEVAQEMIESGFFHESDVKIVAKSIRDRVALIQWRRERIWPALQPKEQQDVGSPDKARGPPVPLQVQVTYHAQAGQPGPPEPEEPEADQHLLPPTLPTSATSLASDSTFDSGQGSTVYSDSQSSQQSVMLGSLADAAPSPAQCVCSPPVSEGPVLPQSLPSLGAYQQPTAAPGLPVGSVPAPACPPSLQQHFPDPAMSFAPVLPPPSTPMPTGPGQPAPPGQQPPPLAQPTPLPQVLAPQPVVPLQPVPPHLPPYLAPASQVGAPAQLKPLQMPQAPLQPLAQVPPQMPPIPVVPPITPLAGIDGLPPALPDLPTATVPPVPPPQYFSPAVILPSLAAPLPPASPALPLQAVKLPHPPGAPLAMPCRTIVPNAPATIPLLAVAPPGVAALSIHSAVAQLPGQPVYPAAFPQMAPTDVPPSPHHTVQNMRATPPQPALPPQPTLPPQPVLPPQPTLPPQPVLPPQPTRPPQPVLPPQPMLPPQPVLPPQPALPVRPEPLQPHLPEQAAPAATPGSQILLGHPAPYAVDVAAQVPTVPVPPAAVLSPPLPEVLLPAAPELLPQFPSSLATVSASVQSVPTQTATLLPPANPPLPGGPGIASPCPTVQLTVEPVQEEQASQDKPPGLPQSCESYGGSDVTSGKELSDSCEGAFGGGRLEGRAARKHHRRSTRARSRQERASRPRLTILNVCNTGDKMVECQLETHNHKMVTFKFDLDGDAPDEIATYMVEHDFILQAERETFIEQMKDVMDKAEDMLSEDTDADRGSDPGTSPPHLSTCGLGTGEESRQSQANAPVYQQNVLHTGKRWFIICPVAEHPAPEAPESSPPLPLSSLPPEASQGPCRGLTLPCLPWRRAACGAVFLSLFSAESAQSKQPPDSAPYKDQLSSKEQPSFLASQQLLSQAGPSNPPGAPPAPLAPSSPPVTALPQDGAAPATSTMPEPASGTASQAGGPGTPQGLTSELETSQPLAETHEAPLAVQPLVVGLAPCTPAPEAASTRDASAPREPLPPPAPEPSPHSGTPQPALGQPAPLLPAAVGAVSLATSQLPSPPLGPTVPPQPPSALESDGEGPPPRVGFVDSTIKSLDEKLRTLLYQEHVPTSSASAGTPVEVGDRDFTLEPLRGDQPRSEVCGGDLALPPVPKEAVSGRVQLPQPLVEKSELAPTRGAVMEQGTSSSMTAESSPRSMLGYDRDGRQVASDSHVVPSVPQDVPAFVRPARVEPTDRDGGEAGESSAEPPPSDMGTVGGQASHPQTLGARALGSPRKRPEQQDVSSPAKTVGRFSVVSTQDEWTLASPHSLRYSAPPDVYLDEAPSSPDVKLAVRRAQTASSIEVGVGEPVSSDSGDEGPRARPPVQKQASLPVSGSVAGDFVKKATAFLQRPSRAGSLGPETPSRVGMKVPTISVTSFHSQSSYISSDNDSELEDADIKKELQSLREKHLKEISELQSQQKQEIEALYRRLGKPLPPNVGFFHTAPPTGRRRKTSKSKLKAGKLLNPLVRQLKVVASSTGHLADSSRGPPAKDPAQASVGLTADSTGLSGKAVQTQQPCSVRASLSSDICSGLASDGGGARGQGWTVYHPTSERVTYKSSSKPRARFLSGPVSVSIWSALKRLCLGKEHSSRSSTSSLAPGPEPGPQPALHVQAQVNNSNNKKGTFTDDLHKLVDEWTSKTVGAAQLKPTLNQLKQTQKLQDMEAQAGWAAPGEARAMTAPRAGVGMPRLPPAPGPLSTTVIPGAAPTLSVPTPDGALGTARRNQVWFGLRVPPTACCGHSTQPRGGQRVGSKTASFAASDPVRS
How it was run: as §1

[13] = read-out: Residual activity (%) Spautin-1 5aa
[14] = read-out: Residual activity (%) 5as
[15] = read-out: Residual activity (%) 5at
[16] = read-out: Residual activity (%) 5ay

Fc1ccc(CNc2ncnc3ccc(F)cc23)cc1 [5aa, 6-Fluoro-N-(4-fluorobenzyl)-4-Quinazolinamine] gave a remaining activity at 10 µM [1, 13] of 80%, a remaining activity at 10 µM [2, 13] of 92% and a remaining activity at 10 µM [3, 13] of 89%. For the same compound, the remaining activity at 10 µM [4, 13] was 103%, the remaining activity at 10 µM [5, 13] was 95% and the remaining activity at 10 µM [6, 13] was 98%. The remaining activity at 10 µM [7, 13] was 91%, the remaining activity at 10 µM [8, 13] was 78% and the remaining activity at 10 µM [9, 13] was 72%. It also gave a remaining activity at 10 µM [10, 13] of 101%, a remaining activity at 10 µM [11, 13] of 117% and a remaining activity at 10 µM [12, 13] of 77%.
Compound Fc1ccc(CCNc2ncnc3ccc(F)cc23)cc1 [5as, 6-Fluoro-N-[2-(4-Fluorophenyl)Ethyl]-4-Quinazolinamine] has a remaining activity at 10 µM [1, 14] of 89%, a remaining activity at 10 µM [2, 14] of 89% and a remaining activity at 10 µM [3, 14] of 72%. For the same compound, the remaining activity at 10 µM [4, 14] was 106%, the remaining activity at 10 µM [5, 14] was 94% and the remaining activity at 10 µM [6, 14] was 64%. For the same compound, the remaining activity at 10 µM [7, 14] was 91%, the remaining activity at 10 µM [8, 14] was 100% and the remaining activity at 10 µM [9, 14] was 74%. The remaining activity at 10 µM [10, 14] was 90%, the remaining activity at 10 µM [11, 14] was 93% and the remaining activity at 10 µM [12, 14] was 74%.
Fc1ccc2ncnc(NCCc3ccc(Cl)cc3)c2c1 [5at, N-[2-(4-Chlorophenyl)Ethyl]-6-Fluoro-4-Quinazolinamine] was tested, and the remaining activity at 10 µM [1, 15] was 74%, the remaining activity at 10 µM [2, 15] was 97% and the remaining activity at 10 µM [3, 15] was 80%. It also gave a remaining activity at 10 µM [4, 15] of 108%, a remaining activity at 10 µM [5, 15] of 87% and a remaining activity at 10 µM [6, 15] of 76%. The remaining activity at 10 µM [7, 15] was 101%, the remaining activity at 10 µM [8, 15] was 86% and the remaining activity at 10 µM [9, 15] was 62%. The remaining activity at 10 µM [10, 15] was 91%, the remaining activity at 10 µM [11, 15] was 99% and the remaining activity at 10 µM [12, 15] was 76%.
COc1ccc2ncnc(Nc3cccc(F)c3)c2c1 [5ay, N-(3-Fluorophenyl)-6-Methoxy-4-Quinazolinamine] was tested, and the remaining activity at 10 µM [1, 16] was 86%, the remaining activity at 10 µM [2, 16] was 80% and the remaining activity at 10 µM [3, 16] was 77%. It also gave a remaining activity at 10 µM [4, 16] of 100%, a remaining activity at 10 µM [5, 16] of 94% and a remaining activity at 10 µM [6, 16] of 71%. For the same compound, the remaining activity at 10 µM [7, 16] was 44%, the remaining activity at 10 µM [8, 16] was 76% and the remaining activity at 10 µM [9, 16] was 64%. For the same compound, the remaining activity at 10 µM [10, 16] was 87%, the remaining activity at 10 µM [11, 16] was 90% and the remaining activity at 10 µM [12, 16] was 71%.
